pIC50: −log10 of the molar value. Where two headings read alike, the source gives them in different places. Starred links: 1 amine or outer side, 2 acyl side, 3 side chain; linkers in the order of their positions; H or OH if unused. Non-standard residues stand in square brackets, D forms with d. Residues, ends and D or L forms follow the SMILES beside them. *: point of attachment. X4 = O=C(N(Cc1ccc(-c2ccccc2)cc1)N[*:1])[*:2]; azaTyr = O=C(N(Cc1ccc(O)cc1)N[*:1])[*:2]; X3 = O=C(N(Cc1cccc2ccccc12)N[*:1])[*:2]; azaPhe = O=C(N(Cc1ccccc1)N[*:1])[*:2]; azaLeu = CC(C)CN(N[*:1])C(=O)[*:2]; azaPro = O=C(N1CCCN1[*:1])[*:2]; AzaAla = CN(N[*:1])C(=O)[*:2]; X5 = O=C(CC1CNc2ccccc21)*; azaGly = NNC(=O)O
Biological target: human GHS-R1a (Homo sapiens (Human), UniProt Q92847)
Assay: GHS-R1a binding assay, competition with 125I-ghrelin on membranes of LLC-PK1 cells expressing human GHS-R1a
Protocol: Rat ghrelin was radio iodinated with Na^125I using the lodo-Beads iodination reagent (Pierce #28665). Briefly, an lodo-bead was incubated with 2 mCi of Na^125I (Amersham) in 100 μL of 50 mM sodium phosphate buffer, pH 7.0 for 5 min at 22° C. The reaction was started by adding 20 nmol of the peptide (1 mM in 0.1 M acetic acid). The tube was incubated for 10 min at 22° C. The iodination was terminated by adding 1 mL of 0.1% TFA. The mono-iodinated peptide was purified by reverse-phase HPLC using a Vydac C18 ([…]) column (30 cm×0.39 cm) in combination with a binary elution system of (A) 0.1% TFA in H2O and (B) 0.1% TFA, 10% H2O, 90% acetonitrile. Fractions of 0.5 mL were collected and analyzed by its radioactive content.
Cells (1.4×10^6) were plated in 100 mm plates and transfected 24 h later with pCDNA3.1-hGHS-R1a (UMR cDNA Resource Center #GHSR0A0000) following the CaHPO4 precipitation method. Briefly, 40 μg of plasmid DNA was diluted in 500 μL of sterile H2O and added to an equal volume of a 4× CaCl2, pH 7.9 solution (2 mM Tris-HCl, 0.2 mM EDTA, 500 mM CaCl2). The mixture was then added slowly with air bubbles to 1 mL of 2× Hepes-buffered saline, pH 7.1 (50 mM Hepes, 280 mM NaCl, 1.5 mM Na2HPO4). After 30 min at room temperature, 1 mL was distributed evenly over the cells and let overnight. The medium was changed the next morning and the membrane preparation was made two days later.
Cells were washed twice with PBS and once with ice-cold homogenization buffer (50 mM Tris-HCl, pH 7.3, 5 mM MgCl2, 2.5 mM EDTA, 30 μg/ml bacitracin). Cells were scraped and harvested in 1.5 mL tubes. Cells were then lysed by temperature shock with two freeze/thaw cycles in liquid nitrogen. The tubes were centrifuged at 14000 g for 20 min. Pellets were resuspended in homogenization buffer and stored at −80° C. until used. Total protein concentrations were determined with the BCA protein assay kit (Pierce).
Competition experiments were performed by incubating 50 μg of LLC-PK1 membranes expressing human GHS-R1a with 15 fmol of ^125I-Ghrelin and increasing concentrations of unlabeled ghrelin or with increasing concentrations of azapeptides derivatives in 0.5 mL of binding buffer. Bound radiolabelled ligand was separated from free by filtration on Whatman GF/C filters pretreated with a 1% polyethylenimine solution. Filters were washed with 2×3 mL of washing buffer (50 mM Tris-HCl, pH 7.3, 10 mM MgCl2, 2.5 mM EDTA, 0.015% Triton X-100). Filters were counted in a LKB gamma counter. Curves were analyzed using Prism software (GraphPad Software Inc).

[1] = Table 5, read-out: IC50 Binding GHS-R1a
[2] = Table 4, LLCPK-1 membranes overexpressing GHS-R1a, radioiodinated (1-28) rat ghrelin as tracer, read-out: EC50 (text: IC50 values from competition curves in GHS-R1a radioreceptor assay)

Sequence of human GHS-R1a (Q92847 whole entry): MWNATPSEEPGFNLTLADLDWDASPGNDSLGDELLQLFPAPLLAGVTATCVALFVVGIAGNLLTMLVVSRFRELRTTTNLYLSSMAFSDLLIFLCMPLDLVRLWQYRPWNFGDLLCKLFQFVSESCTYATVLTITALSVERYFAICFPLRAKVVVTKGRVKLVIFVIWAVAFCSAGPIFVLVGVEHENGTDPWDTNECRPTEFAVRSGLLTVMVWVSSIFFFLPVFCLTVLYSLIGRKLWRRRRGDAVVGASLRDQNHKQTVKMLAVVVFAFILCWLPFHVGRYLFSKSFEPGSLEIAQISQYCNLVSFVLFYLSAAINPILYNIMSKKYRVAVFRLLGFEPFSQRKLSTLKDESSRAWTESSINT

pIC50 [1] | SMILES | pIC50 [2]
< 5.00 | C[C@H](NC(=O)N(Cc1ccccc1)NC(=O)[C@@H](N)Cc1cnc[nH]1)C(=O)N[C@@H](Cc1c[nH]c2ccccc12)C(=O)N[C@H](C)C(=O)N[C@@H](CCCCN)C(N)=O [CP-1A(ii), His-azaPhe-Ala-Trp-D-Ala-Lys-NH2] (H-H[azaPhe]AW[dA]K-NH2) | 
< 5.00 | C[C@H](NC(=O)[C@H](C)NC(=O)N(Cc1ccc(O)cc1)NC(=O)[C@@H](N)Cc1cnc[nH]1)C(=O)N[C@H](Cc1ccccc1)C(=O)N[C@@H](CCCCN)C(N)=O [CP-1B(iii), (D/L)His-azaTyr-Ala-Ala-D-Phe-Lys-NH2] (H-H[azaTyr]AA[dF]K-NH2) | 
4.35 | C[C@H](NC(=O)[C@@H](Cc1ccccc1)NC(=O)[C@H](Cc1c[nH]c2ccccc12)NC(=O)NNC(=O)[C@@H](Cc1c[nH]c2ccccc12)NC(=O)[C@@H](N)Cc1cnc[nH]1)C(N)=O [CP-2A(i), His-D-Trp-azaGly-Trp-D-Phe-Ala-NH2] (H-H[dW][azaGly]W[dF]A-NH2) | 
< 5.00 | C[C@@H](NC(=O)[C@H](Cc1c[nH]c2ccccc12)NC(=O)NNC(=O)[C@@H](Cc1c[nH]c2ccccc12)NC(=O)[C@@H](N)Cc1cnc[nH]1)C(=O)N[C@@H](CCCCN)C(N)=O [CP-2A(ii), His-D-Trp-azaGly-Trp-D-Ala-Lys-NH2] (H-H[dW][azaGly]W[dA]K-NH2) | 
< 5.00 | C[C@H](NC(=O)NNC(=O)[C@@H](Cc1c[nH]c2ccccc12)NC(=O)[C@@H](N)Cc1cnc[nH]1)C(=O)N[C@H](Cc1ccccc1)C(=O)N[C@@H](CCCCN)C(N)=O [CP-2A(iii), His-D-Trp-azaGly-Ala-D-Phe-Lys-NH2] (H-H[dW][azaGly]A[dF]K-NH2) | 
< 5.00 | C[C@@H](NC(=O)[C@@H](N)Cc1cnc[nH]1)C(=O)NNC(=O)N[C@@H](Cc1c[nH]c2ccccc12)C(=O)N[C@H](Cc1ccccc1)C(=O)N[C@@H](CCCCN)C(N)=O [CP-2A(iv), His-D-Ala-azaGly-Trp-D-Phe-Lys-NH2] (H-H[dA][azaGly]W[dF]K-NH2) | 
< 5.00 | CC(C)CN(NC(=O)[C@@H](C)NC(=O)[C@@H](N)Cc1cnc[nH]1)C(=O)N[C@@H](Cc1c[nH]c2ccccc12)C(=O)N[C@H](Cc1ccccc1)C(=O)N[C@@H](CCCCN)C(N)=O [CP-2B (iv), His-D-Ala-azaLeu-Trp-D-Phe-Lys-NH2] (H-H[dA][azaLeu]W[dF]K-NH2) | 
< 5.00 | C[C@H](NC(=O)[C@@H](C)NC(=O)[C@@H](N)Cc1cnc[nH]1)C(=O)NN(Cc1ccccc1)C(=O)N[C@H](Cc1ccccc1)C(=O)N[C@@H](CCCCN)C(N)=O [CP-3 (iii), His-D-Ala-Ala-azaPhe-D-Phe-Lys-NH2] (H-H[dA]A[azaPhe][dF]K-NH2) | 
< 5.00 | C[C@H](NC(=O)[C@@H](Cc1ccccc1)NC(=O)N(Cc1ccccc1)NC(=O)[C@H](C)NC(=O)[C@@H](Cc1c[nH]c2ccccc12)NC(=O)[C@@H](N)Cc1cnc[nH]1)C(N)=O [CP-3(i), His-D-Trp-Ala-AzaPhe-D-Phe-Ala-NH2] (H-H[dW]A[azaPhe][dF]A-NH2) | 
< 5.00 | C[C@H](NC(=O)[C@@H](Cc1c[nH]c2ccccc12)NC(=O)[C@@H](N)Cc1cnc[nH]1)C(=O)NN(Cc1ccccc1)C(=O)N[C@H](C)C(=O)N[C@@H](CCCCN)C(N)=O [CP-3(ii), His-D-Trp-Ala-azaPhe-D-Ala-Lys-NH2] (H-H[dW]A[azaPhe][dA]K-NH2) | 
< 5.00 | NCCCC[C@H](NC(=O)[C@@H](Cc1ccccc1)NC(=O)[C@H](Cc1c[nH]c2ccccc12)NC(=O)N1CCCN1C(=O)[C@@H](Cc1c[nH]c2ccccc12)NC(=O)[C@@H](N)Cc1cnc[nH]1)C(N)=O [CP-AP_4, His-D-Trp-azaPro-Trp-D-Phe-Lys-NH2] (H-H[dW][azaPro]W[dF]K-NH2) | 
< 5.00 | NCCCC[C@H](NC(=O)[C@@H](Cc1ccccc1)NC(=O)C1CCCN1C(=O)NNC(=O)[C@@H](Cc1c[nH]c2ccccc12)NC(=O)[C@@H](N)Cc1cnc[nH]1)C(N)=O (stereo partly drawn) [CP-AzaGly-Pro, His-D-Trp-azaGly-Pro-D-Phe-Lys-NH2] | 
 | CN(NC(=O)[C@@H](Cc1c[nH]c2ccccc12)NC(=O)[C@@H](N)Cc1cnc[nH]1)C(=O)N[C@@H](Cc1c[nH]c2ccccc12)C(=O)N[C@H](Cc1ccccc1)C(=O)N[C@@H](CCCCN)C(N)=O [DBG145, His-D-Trp-azaAla-Trp-D-Phe-Lys-NH2] (H-H[dW][AzaAla]W[dF]K-NH2) | 6.09
 | CN(NC(=O)[C@@H](Cc1c[nH]c2ccccc12)NC(=O)CC1CNc2ccccc21)C(=O)N[C@@H](Cc1c[nH]c2ccccc12)C(=O)N[C@H](Cc1ccccc1)C(=O)N[C@@H](CCCCN)C(N)=O (stereo partly drawn) [DBG168-8, In—CO-D-Trp-azaAla-Trp-D-Phe-Lys-NH2] (X5-[dW][AzaAla]W[dF]K-NH2) | 6.29
 | C[C@H](NC(=O)[C@@H](Cc1c[nH]c2ccccc12)NC(=O)[C@@H](N)Cc1cnc[nH]1)C(=O)NN(Cc1ccc(-c2ccccc2)cc1)C(=O)N[C@H](Cc1ccccc1)C(=O)N[C@@H](CCCCN)C(N)=O [DBG253-3, His-D-Trp-Ala-azaBip-D-Phe-Lys-NH2] (H-H[dW]A[X4][dF]K-NH2) | 5.87
 | C[C@H](NC(=O)[C@@H](Cc1c[nH]c2ccccc12)NC(=O)[C@@H](N)Cc1cnc[nH]1)C(=O)NN(Cc1cccc2ccccc12)C(=O)N[C@H](Cc1ccccc1)C(=O)N[C@@H](CCCCN)C(N)=O [DBG253-6, His-D-Trp-Ala-azaNal-1-D-Phe-Lys-NH2] (H-H[dW]A[X3][dF]K-NH2) | 6.14

SMILES | pIC50 [1] | pIC50 [2]
C[C@H](N)C(=O)N[C@H](Cc1c[nH]c2ccccc12)C(=O)N[C@@H](C)C(=O)NN(Cc1ccccc1)C(=O)N[C@H](Cc1ccccc1)C(=O)N[C@@H](CCCCN)C(N)=O [CP-3 (iv), Ala-D-Trp-Ala-AzaPhe-D-Phe-Lys-NH2] (H-A[dW]A[azaPhe][dF]K-NH2) | < 5.00 | 
